Consider ten compounds from patent US9918963B2, “Therapeutic agent for disease based on inhibitory effect of macrophage migration inhibitory factor” (TOYAMA CHEMICAL CO., LTD., priority 2013, dated 2018).

The test system of series [1] is chronic constriction nerve injury model rat. The series is described as follows: Chronic constriction nerve injury model rat, mechanical allodynia by von Frey test. It is filed as in vivo. As to conditions: von Frey test, left hind paw. As for the experimental part:
This test was performed by referring to a method of Bennett et al. (Pain, 1988, vol. 33, pp. 87-107). Compound A was used as a test substance, and celecoxib, one of NSAIDs, was used as a reference substance. The compound A was administered at a dose of 30 mg/kg (Compound A group). The celecoxib was administered at a dose of 30 mg/kg (celecoxib group). To a control group, a 0.5% methyl cellulose aqueous solution used as a vehicle was administered. Under anesthetic with Somnopentyl (manufactured by Kyoritsu Seiyaku Corporation, about 52 mg/kg, intraperitoneal administration), nerve constriction operation was performed on the left sciatic nerves of Sprague-Dawley male rats (7 weeks old). Briefly, a left femoral region of each rat was dissected, the sciatic nerve was detached from tissues around, and the nerve was loosely constricted with a 4-0 silk suture (manufactured by Eticon Inc., surgical silk) for having narrow parts in four positions at intervals of about 1 mm. The muscular layer and the skin were respectively sutured, and the operation region was disinfected. The vehicle, the test substance or the reference substance was orally administered once a day continuously for 14 days from the 16th day after the operation. From the start of the administration, pain sense (mechanical allodynia) of the footpad of left hind paw was evaluated by von Frey test. […] The evaluation of the pain sense was expressed as an average of pain threshold values.

Another series has as its target T1, MIF (Homo sapiens, UniProt P14174).
T1 construct: (catalogue number not given); host or cells: E. coli BL21 Star (DE3)
T1 sequence (P14174 2-115 limits assumed): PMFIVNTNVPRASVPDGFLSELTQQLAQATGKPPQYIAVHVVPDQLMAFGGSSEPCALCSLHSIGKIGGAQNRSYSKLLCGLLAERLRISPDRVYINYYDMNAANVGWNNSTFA
The series is described as follows: Inhibition of MIF tautomerase activity (L-dopachrome methyl ester, absorbance at 475 nm). The conditions noted are these: 30 μmol/L test substance, 10 to 50 nmol/L MIF, pH 6.2, control = 100%; read-out: Inhibition Rate of Tautomerase Reaction. The format is biochemical. The protocol: The inhibitory effect of test substances against tautomerase activity of MIF was evaluated by referring to a method of Healy et al. (Cancer Epidemiology Biomarkers and Prevention, 2011, vol. 20, pp. 1516-1523).
In this method, tautomeric reaction from L-3,4-dihydroxyphenylalanine methyl ester (L-dopachrome methyl ester, colored) to 5,6-hydroxyindole-2-carboxylic acid methyl ester (no color) is measured as a change in absorbance at 475 nm.
As an enzyme source, recombinant MIF manufactured by Abcam Plc. or MIF produced and purified by referring to a method of Lubetsky et al. (The Journal of Biological Chemistry, 2002, vol. 277, pp. 24976-24982) was used. A purification method for MIF is described below.
The pET15b vector (Merck) into which the full length gene sequence of MIF had been inserted was transfected E. coli BL21 Star (DE3) strain (Life Technologies Corporation). […] The E. coli were resuspended in buffer (pH 7.5) containing 20 mmol/L Tris (Wako Pure Chemical Industries, Ltd.), 20 mmol/L sodium chloride (Wako Pure Chemical Industries, Ltd.) and 1 mmol/L dithiothreitol (Wako Pure Chemical Industries, Ltd.), and the resultant was subjected to ultrasonic lysis and centrifugation at 15000 rpm for 10 minutes. The thus obtained supernatant was filtered using a 0.20 μm filter, and was allowed to pass through HiTrap Q HP and HiTrap SP HP columns (GE Healthcare Japan Corporation), so as to separate flow-through fractions each of 5 mL. Each of 10 μL of the separated fractions was subjected to the electrophoresis using 5 to 20% polyacrylamide gel (Wako Pure Chemical Industries, Ltd.), and all proteins were stained with Coomassie brilliant blue reagent (Bio-Rad Laboratories, Inc.). On the basis of results thus obtained, a fraction containing a large amount of MIF and containing least amount of other proteins was selected as purified MIF. The concentration of MIF protein was measured by using BCA protein assay reagent (Thermo Fisher Scientific K. K.).
Inhibitory effect of each test substance against MIF tautomerase activity was measured as follows.
A final concentration of 10 to 50 nmol/L of MIF and a final concentration of 30 μmol/L of each test substance or 0.5% dimethyl sulfoxide (Wako Pure Chemical Industries, Ltd.) as a control were added to buffer (pH 6.2) containing 50 mmol/L Bis-Tris (Dojindo Laboratories) and 1 mmol/L EDTA (Dojindo Laboratories), and reaction was performed at room temperature for 15 minutes to give a reaction solution 1.
On the other hand, 1/20 volume of 12 mmol/L L-3,4-dihydroxyphenylalanine methyl ester (Sigma Aldrich) and 1/20 volume of 24 mmol/L sodium periodate (Wako Pure Chemical Industries, Ltd.) were added to buffer having the same composition as that used for obtaining the reaction solution 1, to give a reaction solution 2.
Next, the reaction solution 1 and the reaction solution 2 were mixed, and the temporal change of absorbance at 475 nm of the obtained mixture was immediately measured.
The difference of the absorbencies between the at about 1 minute after the measurement start and at about 5 minutes after was obtained. Assuming that the absorbance change of the control is 100%, an inhibiting rate of the tautomerase reaction in presence of=each test substance was calculated.

Series [2] deals with chronic relapsing EAE model of mouse. The format is in vivo. As for the experimental part: Compound A was selected as a test substance, and salazosulfapyridine (hereinafter referred to as SASP) was selected as a comparative control agent. Compound A was administered at a dose of 30 mg/kg (Compound A group). SASP was administered at a dose of 300 mg/kg (SASP group). In control group and normal group (no induction treatment group), 0.5% methyl cellulose aqueous solution used as vehicle of the administration liquid was administered.
The chronic relapsing EAE was induced in SJL/J female mice by immunization with partial PLP peptide. Briefly, an emulsion was prepared by mixing equivalent volumes of phosphate buffer saline containing 1 mg/mL of the peptide corresponding to residues 139-151 of the PLP and Freund's […] adjuvant containing 4 mg/mL of killed M. Tuberculosis H37Ra. The emulsion was intradermically injected (50 μg of PLP per mouse) into four positions on the back for immunization, and additionally, on the day of the immunization and two days after, pertussis toxin was intraperitoneally injected in each amount of 150 ng per mouse, twice in total. The vehicle, the test substance or the reference article was orally administered continuously for 44 days once daily from the day of the immunization.
In the present experiment, paralysis was developed to reach a peak on the 14th to 16th day after the immunization, and the symptom remitted once, but relapsed to reach a peak on the 38th day.
The symptom was evaluated in accordance with a report of Weaver et al. (FASEB Journal, 2005, vol. 19, p. 1668). Briefly, paralysis of all of the four limbs and the tail was evaluated by scoring in 4 ranks of scores of 0 to 3 and in 3 ranks of scores of 0 to 2, respectively, and the sum of the scores was determined as EAE score (the maximum score 14).
Incidence rates (the number of mice having developed the disease/the number of used mice) and the average of EAE score of each group were measured at the period of initial onset (on the 15th day after the immunization) and at the period of relapse (on the 38th day after the immunization).

Bounds are passed on as bounds.

As for `Cc1ccc(-c2cc(C(F)(F)F)nn2-c2ccc(S(N)(=O)=O)cc2)cc1` [Celecoxib, celecoxib, reference compound], in series [1] (30 mg/kg orally once a day for 14 days from the 16th day after operation), the “Average of pain thresholds, 30th day after operation” value was 3.1 g. In addition, in series [1] (day before start of administration, 30 mg/kg groups), the “Average of pain thresholds, 15th day after operation” value is recorded as 2.5 g.
As usually defined, the inhibition is how much of the control response was suppressed. In the case of `CS(=O)(=O)Nc1cc2occ(N)c(=O)c2cc1Oc1ccccc1` [Compound B, N-(3-amino-4-oxo-6-phenoxy-4H-1-benzopyran-7-yl)methanesulfonamide], the inhibition at 30 µM at MIF was 50 to 75%.
Still for that read-out and setting: the result for `CC(=O)Nc1coc2cc(NS(C)(=O)=O)c(Oc3ccccc3)cc2c1=O` [Compound C, N-[7-[(methylsulfonyl)amino]-4-oxo-6-phenoxy-4H-1-benzopyran-3-yl]acetamide] reads 50 to 75%; that for `CS(=O)(=O)Nc1cc2occc(=O)c2cc1Oc1ccccc1` [Compound D, N-(4-oxo-6-phenoxy-4H-1-benzopyran-7-yl)methanesulfonamide], 50 to 75%.
As for `CS(=O)(=O)Nc1cc2oc(C(N)=O)cc(=O)c2cc1Oc1ccccc1` [Compound E, 7-[(methylsulfonyl)amino]-4-oxo-6-phenoxy-4H-1-benzopyran-2-carboxamide], the inhibition at 30 µM on MIF was at least 75%.
As to `CC(=O)Nc1cc(=O)c2cc(Oc3ccccc3)c(NS(C)(=O)=O)cc2o1` [Compound F, N-[7-[(methylsulfonyl)amino]-4-oxo-6-phenoxy-4H-1-benzopyran-2-yl]acetamide], the inhibition at 30 µM at MIF was at least 75%.
`CS(=O)(=O)Nc1cc2occ(C(N)=O)c(=O)c2cc1Oc1ccccc1` [Compound G, 7-[(methylsulfonyl)amino]-4-oxo-6-phenoxy-4H-1-benzopyran-3-carboxamide]: on MIF, the inhibition at 30 µM lay in the range of 50 to 75%.
As to `CCS(=O)(=O)Nc1cc2occ(NC=O)c(=O)c2cc1Oc1ccccc1` [Compound H, N-[7-[(ethylsulfonyl)amino]-4-oxo-6-phenoxy-4H-1-benzopyran-3-yl]formamide], the inhibition at 30 µM at MIF was at least 75%.
Still for that read-out and setting: the result for `CS(=O)(=O)Nc1cc2oc(-c3ccccc3)cc(=O)c2cc1Oc1ccccc1` [Compound I, N-(4-oxo-6-phenoxy-2-phenyl-4H-1-benzopyran-7-yl)methanesulfonamide] reads at least 75%.
For the compound `O=C(O)c1cc(/N=N/c2ccc(S(=O)(=O)Nc3ccccn3)cc2)ccc1O` [SASP, salazosulfapyridine], the “Animals died, by period of initial onset” value in series [2] (15th day after immunization, 8 animals, 300 mg/kg orally once daily) is reported as “(1 animal”. Also, the “EAE score, period of initial onset” value in series [2] (15th day after immunization, average, maximum score 14, oral once daily (Compound A 30 mg/kg, SASP 300 mg/kg)) is 5.5. The “Incidence rate, period of initial onset” value in series [2] (15th day after immunization, mice having developed the disease/mice used, oral once daily from immunization (Compound A 30 mg/kg, SASP 300 mg/kg)) is given as 7/7. Besides, the “Animals died, by period of relapse” value in series [2] (38th day after immunization, 8 animals, 300 mg/kg orally once daily) was “(2 animals”. Moreover, the “EAE score, period of relapse” value in series [2] (38th day after immunization, average, maximum score 14, oral once daily (Compound A 30 mg/kg, SASP 300 mg/kg)) is on record as 2.0. For the same compound, the “Incidence rate, period of relapse” value in series [2] (38th day after immunization, mice having developed the disease/mice used, oral once daily (Compound A 30 mg/kg, SASP 300 mg/kg)) is given as 6/6. The “Effect on incidence rate / EAE score, paralysis of chronic relapsing EAE” value in series [2] (oral once daily for 44 days from immunization (Compound A 30 mg/kg, SASP 300 mg/kg)) is listed as “neither the incidence rate nor the EAE score was lowered”.
